Test results from patent US10111967B2, “Complexes of RNA and cationic peptides for transfection and for immunostimulation” (CureVac AG, priority 2007, dated 2018).

Tested on: hPBMC cells
Assay: Immunostimulation of hPBMC cells by RNA/peptide complexes, cytokine production (IL-6, TNF-alpha) by ELISA
Type: cell-based, human
Details: hPBMCs, 24 h; nona-arginine or mRNA alone (not complexed)
Procedure: 15 μg RNA stabilized luciferase mRNA according to SEQ ID NO: 36 (Luc-RNActive) were mixed in different mass ratios with nona-arginine (Arg9) or poly-L-arginine (Sigma-Aldrich; P4663; 5000-15000 g/mol), thereby forming a complex. Following mass ratios were used as shown exemplarily for ((Arg)9). Poly-L-arginine was used for comparative examples following the same instructions.
HPBMC cells from peripheral blood of healthy donors were isolated using a Ficoll gradient and washed subsequently with 1×PBS (phosphate-buffered saline). The cells were then seeded on 96-well microtiter plates (200×1 03/well). […] The immunostimulatory effect upon the hPBMC cells was measured by detecting the cytokine production (Interleukin-6 and Tumor necrose factor alpha). […] Then, the plate was again washed with 1×PBS, containing 0.05% TWEEN®-20 surfactant, and ABTS (2,2′-azino-bis(3-ethylbenzthiazoline-6-sulfonic acid) was added as a substrate. The amount of cytokine was determined by measuring the absorption at 405 nm (OD405) using a standard curve with recombinant Cytokines (BD Pharmingen, Heidelberg, Germany) with the Sunrise ELISA-Reader from Tecan (Crailsheim, Germany). […]
The effect of R9H3 on immunostimulation was tested in hPBMCs. […] The immunostimulatory effect upon the hPBMC cells was measured by detecting the cytokine production (Interleukin-6 and Tumor necrose factor alpha). […]

## Arg-Arg-Arg-Arg-Arg-Arg-Arg-Arg-Arg (RRRRRRRRR; Synthetic peptide - Exemplary oligopeptide according to formula I) [nona-arginine ((Arg)9) alone]
  TNFalpha production: no significant TNFalpha production
